In US11697646B2, “Triazole N-linked carbamoyl cyclohexyl acids as LPA antagonists” (BRISTOL-MYERS SQUIBB COMPANY, priority 2017, dated 2023) one finds IC50 data, which are given here for 27 molecules.

The structures appear in SMILES notation. Counter-ions that a name gives are not always drawn. Like-named read-outs stand apart in the source and are kept apart here.

The assay concerns the target T1, human LPA1 (Homo sapiens, UniProt Q92633).
T1 construct: expressed in transfected cells; host or cells: Chinese hamster ovary (CHO) cells
The experiment in a line: LPA1 functional antagonist assay (calcium flux). Format: cell-based. The following applies: read-out: hLPA1 IC50. Here is the method: The effectiveness of compounds of the present invention as LPA1 inhibitors can be determined in an LPA1 functional antagonist assay as follows:
The cells were then equilibrated to room temperature for 30 minutes before the assay. […] IC50 values were determined by fitting data to a 4-parameter logistic equation (GraphPad Prism, San Diego Calif.).
On the technique in general: Calcium flux is commonly read through the fluorescence of an indicator in the cells.

[1] abbreviates: human LPA1 functional antagonist assay.
Setting [2] is: CHO cells overexpressing human LPA1, calcium flux induced by 10 nM LPA.

T1 sequence (Q92633 whole entry): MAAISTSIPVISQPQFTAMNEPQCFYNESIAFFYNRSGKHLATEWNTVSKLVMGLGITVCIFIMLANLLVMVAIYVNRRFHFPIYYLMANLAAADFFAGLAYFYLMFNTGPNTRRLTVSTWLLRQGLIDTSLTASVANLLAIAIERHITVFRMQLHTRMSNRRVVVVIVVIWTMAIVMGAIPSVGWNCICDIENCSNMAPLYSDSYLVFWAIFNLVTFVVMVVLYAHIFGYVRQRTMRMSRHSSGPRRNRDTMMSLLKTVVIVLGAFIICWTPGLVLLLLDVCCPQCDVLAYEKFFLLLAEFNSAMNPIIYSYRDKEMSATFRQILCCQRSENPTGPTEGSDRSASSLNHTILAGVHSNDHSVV

As a reminder, the IC50 is the concentration at which inhibition is half-maximal. Consider `Cc1nc(-c2nnn(C)c2CNC(=O)OCCC(C)(F)F)ccc1O[C@H]1CCC[C@H](C(=O)O)C1` [Example 202, (1S,3S)-3-((6-(5-((((3,3-difluorobutoxy)carbonyl)amino)methyl)-1-methyl-1H-1,2,3-triazol-4-yl)-2-methylpyridin-3-yl)oxy) cyclo-hexane-1-carboxylic acid], for which the IC50 under setting [1] came out at 86 nM.
On the same count and under the same terms, the figure for `Cc1nc(-c2nnn(C)c2CN(C)C(=O)OCC(C)C)ccc1O[C@H]1CCC[C@H](C(=O)O)C1` [Example 203, (1S,3S)-3-((6-(5-(((isobutoxy-carbonyl)(methyl)amino)methyl)-1-methyl-1H-1,2,3-triazol-4-yl)-2-methylpyridin-3-yl)oxy)cyclo-hexane-1-carboxylic acid] is 91 nM.
Still for that read-out and setting: with `Cc1nc(-c2nnn(C)c2CN(C)C(=O)OCC2CC2)ccc1O[C@H]1CCC[C@H](C(=O)O)C1` [Example 205, (1S,3S)-3-((6-(5-((((cyclopropylmethoxy)carbonyl)(methyl)amino)methyl)-1-methyl-1H-1,2,3-triazol-4-yl)-2-methyl-pyridin-3-yl)oxy)cyclohexane-1-carboxylic acid, TFA salt] the figure was 333 nM.
As to `Cc1nc(-c2nnn(C)c2CNC(=O)OCCCC(C)(F)F)ccc1O[C@H]1CCC[C@H](C(=O)O)C1` [Example 206, (1S,3S)-3-((6-(5-(((((4,4-difluoropentyl)oxy)carbonyl)amino)methyl)-1-methyl-1H-1,2,3-triazol-4-yl)-2-methylpyridin-3-yl)oxy)cyclohexane-1-carboxylicacid], the IC50 under setting [2] came out at 71 nM.
The same measure, in the same setting: with `Cc1nc(-c2nnn(C)c2CNC(=O)OC[C@@H]2CC2(F)F)ccc1O[C@H]1CCC[C@H](C(=O)O)C1` [Example 208, (1S,3S)-3-((6-(5-((((((S)-2,2-difluorocyclopropyl)methoxy)carbonyl)amino)methyl)-1-methyl-1H-1,2,3-triazol-4-yl)-2-methylpyridin-3-yl)oxy)cyclohexane-1-carboxylate diethylammonium salt] the figure was 57 nM; with `Cc1nc(-c2nnn(C)c2CNC(=O)OCC2CCC2)c(F)cc1O[C@H]1CCC[C@H](C(=O)O)C1` [Example 212, (1S,3S)-3-((6-(5-((((cyclobutylmethoxy)carbonyl)amino)methyl)-1-methyl-1H-1,2,3-triazol-4-yl)-5-fluoro-2-methylpyridin-3-yl)oxy)cyclohexane-1-carboxylic acid], 112 nM; with `Cc1nc(-c2nnn(C)c2CNC(=O)OCC(C)C)c(F)cc1O[C@H]1CCC[C@H](C(=O)O)C1` [Example 213], 382 nM.
Consider `Cc1nc(-c2nnn(C)c2CNC(=O)OC2CC3(CC3)C2)c(F)cc1O[C@H]1CCC[C@H](C(=O)O)C1` [Example 214, (1S,3S)-3-((5-fluoro-2-methyl-6-(1-methyl-5-((((spiro[2.3]hexan-5-yloxy)carbonyl)amino)methyl)-1H-1,2,3-triazol-4-yl)pyridin-3-yl)oxy)cyclohexane-1-carboxylic acid], for which, under setting [2], the concentration for half-maximal inhibition (IC50) was 129 nM.
The same measure, in the same setting: the figure for `Cc1nc(-c2nnn(C)c2CNC(=O)OCC2(C)CC2)c(F)cc1O[C@H]1CCC[C@H](C(=O)O)C1` [Example 215, (1S,3S)-3-((5-fluoro-2-methyl-6-(1-methyl-5-(((((1-methylcyclopropyl)methoxy)carbonyl)amino)methyl)-1H-1,2,3-triazol-4-yl)pyridin-3-yl)oxy)cyclohexane-1-carboxylic acid] is 112 nM; for `CCC1(COC(=O)NCc2c(-c3nc(C)c(O[C@H]4CCC[C@H](C(=O)O)C4)cc3F)nnn2C)CC1` [Example 216, (1S,3S)-3-((6-(5-(((((1-ethylcyclo-propyl)methoxy)carbonyl)amino)methyl)-1-methyl-1H-1,2,3-triazol-4-yl)-5-fluoro-2-methylpyridin-3-yl)oxy)cyclohexane-1-carboxylic acid] it is 46 nM; for `CCCCOC(=O)Nc1c(-c2nc(C)c(O[C@H]3CCC[C@H](C(=O)O)C3)cc2F)nnn1C` [Example 217] it is 72 nM.
Consider `Cc1nc(-c2nnn(C)c2NC(=O)OCC2CC2)c(F)cc1O[C@H]1CCC[C@H](C(=O)O)C1` [Example 218, (1S,3S)-3-{[6-(5-{[(cyclopropylmethoxy)carbonyl]amino}-1-methyl-1H-1,2,3-triazol-4-yl)-5-fluoro-2-methylpyridin-3-yl]oxy} cyclohexane-1-carboxylic acid], for which the IC50 under setting [2] came to 300 nM.
On the same count and under the same terms, with `Cc1nc(-c2nnn(C)c2NC(=O)OCC(C)C)c(F)cc1O[C@H]1CCC[C@H](C(=O)O)C1` [Example 219, (1S,3S)-3-((5-fluoro-6-(5-((isobutoxycarbonyl)amino)-1-methyl-1H-1,2,3-triazol-4-yl)-2-methylpyridin-3-yl)oxy)cyclohexane-1-carboxylic acid] the figure was 152 nM; with `CC(C)OC(=O)Nc1c(-c2ccc(O[C@H]3CCC[C@H](C(=O)O)C3)cn2)nnn1C` [Example 220, (1S,3S)-3-((6-(5-((isopropoxy-carbonyl)amino)-1-methyl-1H-1,2,3-triazol-4-yl)pyridin-3-yl)oxy)cyclohexane-1-carboxylic acid], 389 nM.
Same read-out and setting: with `CCCOC(=O)Nc1c(-c2ccc(O[C@H]3CCC[C@H](C(=O)O)C3)cn2)nnn1C` [Example 221, (1S,3S)-3-((6-(1-methyl-5-((pro-poxy-carbonyl)amino)-1H-1,2,3-triazol-4-yl)pyridin-3-yl)oxy)cyclohexane-1-carboxylic acid] the figure was 42 nM; with `CCCCOC(=O)Nc1c(-c2ccc(O[C@H]3CCC[C@H](C(=O)O)C3)c(C)n2)nnn1C` [Example 222, (1S,3S)-3-((6-(5-((butoxycarbonyl)amino)-1-methyl-1H-1,2,3-triazol-4-yl)-2-methylpyridin-3-yl)oxy)cyclohexane-1-carboxylic acid], 21 nM.
Still for that read-out and setting: with `Cc1nc(-c2nnn(C)c2NC(=O)OCC2(C)CC2)ccc1O[C@H]1CCC[C@H](C(=O)O)C1` [Example 224, (1S,3S)-3-((2-methyl-6-(1-methyl-5-((((1-methylcyclopropyl)methoxy)carbonyl)amino)-1H-1,2,3-triazol-4-yl)pyridin-3-yl)oxy)cyclohexane-1-carboxylic acid] the figure was 60 nM; with `Cc1nc(-c2nnn(C)c2NC(=O)OC2CC3(CC3)C2)ccc1O[C@H]1CCC[C@H](C(=O)O)C1` [Example 225, (1S,3S)-3-((2-methyl-6-(1-methyl-5-(((spiro[2.3]hexan-5-yloxy)carbonyl)amino)-1H-1,2,3-triazol-4-yl)pyridin-3-yl)oxy)cyclohexane-1-carboxylic acid], 181 nM; with `Cc1nc(-c2nnn(C)c2CNS(=O)(=O)NCC2CCCC2)ccc1O[C@H]1CCC[C@H](C(=O)O)C1` [Example 226, (1S,3S)-3-((6-(5-(((N-(cyclopentylmethyl)sulfamoyl)amino)methyl)-1-methyl-1H-1,2,3-triazol-4-yl)-2-methylpyridin-3-yl)oxy)cyclohexane-1-carboxylic acid], 1100 nM.
On to `Cc1nc(-c2nnn(C)c2CNS(=O)(=O)NCc2ccccc2)ccc1O[C@H]1CCC[C@H](C(=O)O)C1` [Example 227, (1S,3S)-3-((6-(5-(((N-benzyl-sulfamoyl)amino)methyl)-1-methyl-1H-1,2,3-triazol-4-yl)-2-methyl-pyridin-3-yl)oxy)cyclohexane-1-carboxylic acid], for which, under setting [2], the IC50 is 1800 nM.
The same measure, in the same setting: with `Cc1nc(-c2nnn(C)c2CN(C)S(=O)(=O)N(C)Cc2ccccc2)ccc1O[C@H]1CCC[C@H](C(=O)O)C1` [Example 228, (1S,3S)-3-((6-(5-(((N-benzyl-N-methyl-sulfamoyl)(methyl)amino)methyl)-1-methyl-1H-1,2,3-triazol-4-yl)-2-methylpyridin-3-yl)oxy)cyclohexane-1-carboxylic acid] the figure was 218 nM; with `CCCCN(C)S(=O)(=O)N(C)Cc1c(-c2ccc(O[C@H]3CCC[C@H](C(=O)O)C3)c(C)n2)nnn1C` [Example 229, (1S,3S)-3-((6-(5-(((N-butyl-N-methyl-sulfamoyl)(methyl)amino)methyl)-1-methyl-1H-1,2,3-triazol-4-yl)-2-methylpyridin-3-yl)oxy)cyclohexane-1-carboxylic acid], 110 nM.
Same read-out and setting: the figure for `CCc1nc(-c2nnn(C)c2NC(=O)OCC(C)C)ccc1O[C@H]1CCC[C@H](C(=O)O)C1` [Example 230, (1S,3S)-3-{[2-ethyl-6-(1-methyl-5-{[(2-methylpropoxy)carbonyl]amino}-1H-1,2,3-triazol-4-yl)pyridin-3-yl]oxy}cyclohexane-1-carboxylic acid] is 17 nM.
`CCc1nc(-c2nnn(C)c2NC(=O)OCC2CC2)ccc1O[C@H]1CCC[C@H](C(=O)O)C1` [Example 231, (1S,3S)-3-{[6-(5-{[(cyclopropyl-methoxy)carbonyl}amino}-1-methyl-1H-1,2,3-triazol-4-yl)-2-ethylpyridin-3-yl]oxy}cyclohexane-1-carboxylic acid]: the IC50 under setting [2] amounted to 28 nM.
Turning to `CCCCOC(=O)Nc1c(-c2ccc(O[C@H]3CCC[C@H](C(=O)O)C3)c(CC)n2)nnn1C` [Example 232, (1 S,3 S)-3-[(6-{5-[(butoxycarbonyl)amino]-1-methyl-1H-1,2,3-triazol-4-yl}-2-ethylpyridin-3-yl)oxy]cyclo-hexane-1-carboxylic acid], the IC50 under setting [2] worked out at 12 nM.
Take `CCCOC(=O)Nc1c(-c2ccc(O[C@H]3CCC[C@H](C(=O)O)C3)c(CC)n2)nnn1C` [Example 233, (1S,3S)-3-[(2-ethyl-6-{1-methyl-5-[(propoxycarbonyl)amino]-1H-1,2,3-triazol-4-yl}pyridin-3-yl)oxy]cyclo-hexane-1-carboxylic acid]: the IC50 under setting [2] was 1040 nM.
Take `Cc1nc(-c2nnn(C)c2CNC(=O)C(C)(C)Oc2ccccc2)ccc1O[C@H]1CCC[C@H](C(=O)O)C1` [Example 234, (1S,3S)-3-((2-methyl-6-(1-methyl-5-((2-methyl-2-phenoxypropanamido)methyl)-1H-1,2,3-triazol-4-yl)pyridin-3-yl)oxy)cyclohexane-1-carboxylic acid]: under setting [2], the IC50 amounted to 392 nM.
